Source: US20060063794A1, “Method of attenuating graft rejection” (Fujisawa Pharmaceutical Co., Ltd., priority 2004, published 2006)

How the values were obtained:
[1] = test system: human kidney transplant recipients; test: Multi-center, randomized, double-blind trial of FK778/Tacrolimus/steroids: acute rejection and graft survival; type: in vivo
Method: Patients were randomised to a 3-month treatment regimen with high-level FK778/Tacrolimus/corticosteroid (arm 1), low-level FK778/Tacrolimus/corticosteroid (arm 2), or placebo/Tacrolimus/corticosteroid (arm 3). FK778 and placebo were administered in a double-blind manner. Patients in arm 1 received two doses of 600 mg/day and continued on 150 mg/day. Patients in arm 2 received one dose of 600 mg/day and continued on 75 mg/day. Subsequent doses were adjusted to maintain trough levels of FK778 in the range of 100-200 μg/mL (arm 1) and 10-100 μg/mL (arm 2). Trough levels of FK778 were centrally determined. Doses of FK778 were adjusted according to the recommendations of an independent panel.
Treatment of adults of both genders was studied in a multi-center, randomized, double-blind trial. Three groups were studied. Group H was treated with high dose FK778/tarcolimus/steroids; Group L was treated with low dose FK778/tarcolimus/steroids; and Group P was treated with placebo/Tacrolimus/steroids. Tacrolimus was given as an initial dose of 0.2 mg/kg per os divided into two equal doses, one pre-operatively and one post-operatively. Subsequent doses were adjusted to reach target Tacrolimus whole blood trough concentrations of 10-20 ng/mL on Days 0-30, and 5-15 ng/mL on Days 31-84. Methylprednisolone was perioperatively administered at 1000 mg i.v. or less and 125 mg on Day 1. A prednisolone equivalent was given orally at 20 mg from Day 2-14, at 15 mg on Day 15-28, at 10 mg from Day 29-42 and 5 mg from Day 43-84. Oral tablets of FK778/placebo were administered in a double-blind manner.
Patients in group H received loading doses of 600 mg/day on Day 1 and 2 and continued on 150 mg/day. This was the maximum permitted daily dose of FK778. Patients in group L received 600 mg/day only on Day 1 and continued on 75 mg/day. Dose adaptations were to be performed from day 7 onwards. Subsequent doses were adjusted to maintain plasma trough levels of FK778 in the target ranges of 100-200 μg/mL (H) and 10-100 μg/mL (L).
All visits and time points were calculated from the day of reperfusion (Day 0). […] Periods of dialysis dependence and hospitalization were recorded, as were details of medication. In case of a clinically apparent rejection, a renal graft biopsy was taken and classified by the local histopathologist according to the Banff 97 criteria (Racusen et al., Kidney Int. 55: 713-723 (1999)). Type I, II and III acute rejections (AR) were reported. AR was classified as corticosteroid-sensitive or corticosteroid-resistant. An independent histopathologist who was blinded to treatment and local biopsy readings performed the central biopsy review.
The primary efficacy endpoint was the incidence of AR proven by local biopsy over the first 12 weeks. […] For being defined as a patient whose target level was achieved, the average trough level of this patient had to be within the target range at week 2. On a continuous basis safety was assessed by patient and graft survival, adverse event monitoring, routine laboratory evaluations and vital signs. Treatment emergent adverse events were coded according to the MedDRA dictionary (version 5.0).
In this example, all tests were performed one-sided and pair-wise without alpha-adjustment for multiple testing using a 10% significance level. Statistical power was calculated for the analysis of the primary endpoint. A difference of 20% between groups in the incidence of biopsy-proven AR was considered a clinically meaningful difference. A reasonable expectation for the estimated rate of patients experiencing biopsy-proven AR in the Tacrolimus/steroid arm was 35%. Allowing for a dropout rate of 11%, it was estimated that with the outlined statistical methods the sample size of 45 evaluable patients per treatment arm was large enough to achieve a power of ≧80%. Thus, it was planned to enroll 135 patients using a 1:1:1 randomisation. The primary endpoint was analysed using chi-squared tests. […]

rat cardiac allografts = details: rats, cited from earlier work
renal allograft = details: rats, concomitant 14-day regimen FK778 (10/mg/kg/day) and Tacrolimus (1 mg/k/day); cited from earlier work
[2] = All patients, High level FK778 (group H)
[3] = All patients, Low level FK778 (group L)

C#CCC/C(O)=C(\C#N)C(=O)Nc1ccc(C(F)(F)F)cc1 [FK778, (2Z)-2-cyano-3-hydroxy-N-[4-(trifluromethyl)phenyl]-2-hepten-6-ynamide]
Corticosteroid-resistant AR (%) [1, 2]: (8.2) %
Corticosteroid-resistant AR, number of patients [1, 2]: 4
Corticosteroid-sensitive AR (%) [1, 2]: (22.4) %
Corticosteroid-sensitive AR, number of patients [1, 2]: 11
Overall AR proven by central biopsy, number of patients ([1]; All patients, High level FK778 (group H), N=49): 13
Overall AR proven by local biopsy, number of patients ([1]; All patients, High level FK778 (group H), N=49, first 12 weeks): 14
Corticosteroid-resistant AR (%) [1, 3]: (11.1) %
Corticosteroid-resistant AR, number of patients [1, 3]: 6
Corticosteroid-sensitive AR (%) [1, 3]: (14.8) %
Corticosteroid-sensitive AR, number of patients [1, 3]: 8
Overall AR proven by central biopsy, number of patients ([1]; All patients, Low level FK778 (group L), N=54): 14
Overall AR proven by local biopsy, number of patients ([1]; All patients, Low level FK778 (group L), N=54, first 12 weeks): 14
Overall AR proven by central biopsy, number of patients ([1]; Patients reaching target levels within second week, High level FK778 (subgroup H), N=26): 2
Overall AR proven by central biopsy, number of patients ([1]; Patients reaching target levels within second week, Low level FK778 (subgroup L), N=48): 13
Kaplan-Meier estimated rate of patients free from centrally determined biopsy proven acute rejection, higher compared with placebo ([1]; after 12 weeks, high and low level FK778): 12.1 % percentage points
Graft survival at month 4 ([1]; arm 1, high-level FK778/Tacrolimus/corticosteroid, n=49): 89.7%
Graft survival at month 4 ([1]; arm 2, low-level FK778/Tacrolimus/corticosteroid, n=54): 88.8%
Difference in incidence of AR by central biopsy review versus placebo ([1]; group H vs. P): 12.6%
Difference in incidence of AR proven by local biopsy versus placebo ([1]; group H vs. P): 6.2%
Graft survival estimate (Kaplan-Meier method) at Week 16 ([1]; group H, high level FK778): 89.7%
Difference in incidence of AR by central biopsy review versus placebo ([1]; group L vs. P): 13.2%
Difference in incidence of AR proven by local biopsy versus placebo ([1]; group L vs. P): 8.9%
Graft survival estimate (Kaplan-Meier method) at Week 16 ([1]; group L, low level FK778): 88.8%
Prolongation of graft survival (rat cardiac allografts; 20 mg/kg for ten days): about two
Median graft survival (rat cardiac allografts; MNA 715 (20/mg/kg) combined with Tacrolimus (2.4 mg/kg) for ten days): 19 days
Effect on renal allograft survival (renal allograft): synergistically prolonged renal allograft survival
